Measured values as given in US20120094949A1, “HISTONE MODIFICATION PATTERNS FOR CLINICAL DIAGNOSIS AND PROGNOSIS OF CANCER” (The Regents of the University of California, priority 2009, published 2012).

How the values were obtained:
[1] = tested on: pancreatic adenocarcinoma; assay: Kaplan-Meier survival analysis comparing adjuvant treatments within histone groups, RTOG 9704 TMA; type: in vivo, human; details: adjuvant chemotherapy; for overall or disease-free survival, gemcitabine or 5-FU: each of the high level histone subgroups
Protocol: METHODS: Tissue microarrays (TMAs) from two large pancreatic adenocarcinoma cohorts were examined, including a 195 patient cohort from RTOG 9704, a multi-center phase III randomized treatment trial comparing adjuvant gemcitabine versus 5-fluorouracil (5-FU), and a 140 patient cohort of Stage I or II cancer from UCLA Medical Center. Immunohistochemistry for three histone modifications (H3K4me2, H3K9me2 and H3K18ac) was performed. Positive tumor cell staining of the histone modifications was used to classify patients into low and high staining groups, which were related to clinicopathologic parameters and clinical outcome measures.
Pancreatic adenocarcinoma patients and tissue microarrays. The RTOG 9704 pancreatic cancer tissue microarray (TMA) consisted of 229 cases of pancreatic adenocarcinoma obtained from patients enrolled in RTOG 9704, a phase III randomized post-operative adjuvant treatment trial comparing 5-fluorouracil (5-FU) to gemcitabine before and after chemoradiation (Regine et al., Jama 299:1019-26 (2008)). In RTOG 9704, all patients received adjuvant chemotherapy (5-FU or gemcitabine) for durations of one month before and three months following chemoradiation therapy, which included 5-FU infusion as a radiation sensitizer. Clinicopathologic factors were collected as part of patient enrollment, as were treatment schedules and follow-up clinical information including toxicity, overall survival and disease-free survival. The UCLA Stage I/II pancreatic cancer TMA consisted of 140 cases of AJCC stage I or II pancreatic adenocarcinoma from the UCLA Department of Pathology and Laboratory Medicine archives, representing patients who underwent complete gross resection of tumor at UCLA Medical Center between 1987 and 2005. All work was performed with appropriate institutional review board approvals.
Statistical Analysis. Specific histone cut-offs were previously shown to predict survival in subsets of patients with multiple types of carcinoma, including prostate, lung and kidney (Seligson et al., Am J Pathol 174:1619-1628 (2009); Seligson et al., Nature 435:1262-6 (2005)). In order to standardize and apply these same cut-offs in both pancreatic cancer TMAs, each tumor was assigned a percent rank value (quantile) based on median percent of cells staining relative to its TMA dataset using the SAS system procedure RANK with TIES=LOW option, which assigns the smallest of the corresponding ranks for the ties data values. Each tumor was then assigned into a low or high level staining group based on its percent rank, including H3K4me2 (<60 vs. ≧60 percent rank), H3K9me2 (<30 vs. ≧30 percent rank for the RTOG TMA or <25 vs. ≧25 percent rank for the UCLA Stage I/II TMA) and H3K18ac (<35 vs. ≧35 percent rank). Survival estimates were generated and visualized using the Kaplan-Meier method and survival curves were compared using the log-rank test. Multivariate Cox proportional hazards models were used to test statistical independence and significance of multiple predictors. Overall survival time was measured from the date of randomization (RTOG 9704 TMA) or date of surgery (UCLA Stage I/II TMA) to the date of death due to any cause or last follow-up. Disease-free survival time was only determined for RTOG 9704 and was measured from the date of randomization to the date of first disease-free failure event defined as local or regional disease relapse, distant disease, second primary or death due to any cause. […]

[2] = tested on: pancreatic adenocarcinoma; details: setting of fluorouracil-based chemoradiation; resected pancreatic cancer; cited from earlier work

Row | SMILES | overall or disease-free survival, gemcitabine or 5-FU ([1]; data not shown) | overall survival, 5-FU versus gemcitabine ([1]; low H3K4me2 subgroup, data not shown) | disease-free survival, 5-FU versus gemcitabine ([1]; low H3K4me2 subgroup, log rank test p=0.014) | disease-free survival, 5-FU versus gemcitabine ([1]; low H3K18ac subgroup, log rank test p=0.015) | survival benefit of adjuvant gemcitabine over adjuvant 5-FU [2]
1 | O=c1[nH]cc(F)c(=O)[nH]1 [5-FU, 5-fluorouracil] | no significant differences | non-significant trend towards worse overall survival | worse disease-free survival | worse disease-free survival | –
2 | Nc1ccn([C@@H]2O[C@H](CO)[C@@H](O)C2(F)F)c(=O)n1 [gemcitabine] | no significant differences | – | – | – | non-statistically significant survival benefit
